Experimental data published in article PMC6520443, “Molecular Fingerprints for a Novel Enzyme Family in Actinobacteria with Glucosamine Kinase Activity” (mBio, 2019).

Experiments:
SjGlcNK = target: T1, SjGlcNK (Streptacidiphilus jiangxiensis, UniProt A0A1H7TQR5); assay: kinase kinetics, Michaelis-Menten fit; format: biochemical; conditions: co-substrate ATP
T1 construct: gene SAMN05414137_114149; recombinant, E. coli BL21(DE3), nickel NTA and size exclusion; monomer in solution; C-lobe residues 194-438
T1 sequence (A0A1H7TQR5 1-438): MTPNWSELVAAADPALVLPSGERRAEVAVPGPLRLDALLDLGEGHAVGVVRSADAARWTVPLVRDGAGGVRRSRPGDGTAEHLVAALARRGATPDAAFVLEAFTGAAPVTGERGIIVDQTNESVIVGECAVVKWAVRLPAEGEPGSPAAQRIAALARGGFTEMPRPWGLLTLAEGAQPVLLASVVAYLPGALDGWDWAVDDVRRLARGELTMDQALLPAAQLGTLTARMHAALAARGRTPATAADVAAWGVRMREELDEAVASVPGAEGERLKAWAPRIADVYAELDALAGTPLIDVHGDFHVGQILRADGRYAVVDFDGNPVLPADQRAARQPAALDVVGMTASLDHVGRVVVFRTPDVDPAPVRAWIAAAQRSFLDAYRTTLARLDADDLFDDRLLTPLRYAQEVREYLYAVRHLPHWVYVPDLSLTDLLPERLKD

MvMak = target: T2, MvMak (Mycolicibacterium austroafricanum, UniProt A1TH50); assay: ADP-Glo kinase assay, relative activity; format: biochemical; conditions: 5 mM sugar, 1 mM ATP, 2 μM enzyme, room temperature, 5 min
T2 construct: gene mak; recombinant, produced as previously described
T2 sequence (A1TH50 whole entry): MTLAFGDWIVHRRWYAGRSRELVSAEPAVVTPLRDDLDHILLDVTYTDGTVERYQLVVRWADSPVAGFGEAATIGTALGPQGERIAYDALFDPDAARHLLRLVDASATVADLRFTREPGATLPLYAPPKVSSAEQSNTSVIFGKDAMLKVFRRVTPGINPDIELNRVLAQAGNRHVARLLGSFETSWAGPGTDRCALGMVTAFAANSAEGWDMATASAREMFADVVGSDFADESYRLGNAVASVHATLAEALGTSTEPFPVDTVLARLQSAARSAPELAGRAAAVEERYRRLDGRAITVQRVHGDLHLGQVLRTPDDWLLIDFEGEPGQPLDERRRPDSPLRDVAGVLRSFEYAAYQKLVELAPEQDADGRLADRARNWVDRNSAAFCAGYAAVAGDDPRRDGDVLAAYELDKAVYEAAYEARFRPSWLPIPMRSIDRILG

| SMILES | Km (SjGlcNK) | ADP-Glo kinase assay, relative activity (MvMak) |
| --- | --- | --- |
| OC[C@H]1OC(O)[C@H](O)[C@@H](O)[C@@H]1O (some centres unmarked) [glucose] | > 100 mM | – |
| OC[C@H]1O[C@H](O[C@H]2[C@H](O)[C@@H](O)C(O)O[C@@H]2CO)[C@H](O)[C@@H](O)[C@@H]1O (some centres unmarked) [maltose] | – | MvMak uses exclusively maltose as the substrate acceptor |
